The target in the test is T1, AHA2 central loop (recombinant His-AHA2 central loop) (Arabidopsis thaliana, UniProt P19456).
T1 construct: cytosolic central loop domain only, His-tagged recombinant, fluorescently labelled with NanoTemper RED protein labelling kit
T1 sequence (P19456 292-643 limits assumed): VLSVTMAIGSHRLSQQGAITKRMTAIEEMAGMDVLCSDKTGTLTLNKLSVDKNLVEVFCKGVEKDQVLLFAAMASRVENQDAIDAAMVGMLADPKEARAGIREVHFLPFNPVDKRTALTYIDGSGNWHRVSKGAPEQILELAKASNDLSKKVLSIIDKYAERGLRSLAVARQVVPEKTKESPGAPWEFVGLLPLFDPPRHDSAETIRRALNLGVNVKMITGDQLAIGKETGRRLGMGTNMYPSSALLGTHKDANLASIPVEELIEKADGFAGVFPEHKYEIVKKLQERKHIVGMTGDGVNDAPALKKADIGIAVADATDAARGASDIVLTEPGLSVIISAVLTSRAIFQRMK
Briefly: microscale thermophoresis. The class given is binding. For orientation: Microscale thermophoresis detects binding through changes in fluorescence in a small temperature gradient.

`O=C1NC(=S)S/C1=C\c1ccco1` [PS-1, (Z)-5-(furan-2-ylmethylene)-2-thioxothiazolidin-4-one]: the Kd was 4.88 ± 0.66 µM.

On to `O=C1NC(=S)S/C1=C\c1ccc[nH]1` [compound 27, (Z)-5-((1H-pyrrol-2-yl)methylene)-2-thioxothiazolidin-4-one], for which the equilibrium dissociation constant (Kd) amounted to 0.55 ± 0.05 µM.

Broadly, the Kd is the constant that tells how readily two partners part at equilibrium.

The values are drawn from publication PMC9597486, “Screening of protonstatin-1 (PS-1) analogs for improved inhibitors of plant plasma membrane H^+-ATPase activity” (Frontiers in Plant Science, 2022).
